The values below come from US9290529B2, “Carbonic anhydrase inhibitors and method of their production” (USTAV ORGANICKE CHEMIE A BIOCHEMIE AKADEMIE VED CESKE …, priority 2011, dated 2016).

Read-outs that look alike come from different tables or passages of the source. Bounds are passed on as bounds.

In one experiment the test system is HCT116p53−/−. Briefly: MTT cytotoxicity assay, HCT116p53−/−. It counts as cell-based, human. Conditions: 72 h. From the text: One of the parameters used as the basis for colorimetric assays is the metabolic activity of viable cells. For example, a microtiter assay which uses the tetrazolium salt MTT is now widely used to quantitate cell proliferation and cytotoxicity (Hájduch et al., Cytotechnology, 19, 1996, 243-245). For instance, this assay is used in drug screening programs and in chemosensitivity testing. Because tetrazolium salts are cleaved only by metabolically active cells, these assays exclusively detect viable cells. In the case of the MTT assay, yellow soluble tetrazolium salt is reduced to a coloured water-insoluble formazan salt. After it is solubilized, the formazan formed can easily and rapidly be quantified in a conventional ELISA plate reader at 570 nm (maximum absorbancy). The quantity of reduced formazan corresponds to the number of vital cells in the culture.
All cells were purchased from the […] (ATCC), unless otherwise indicated: the CEM line are highly chemosensitive T-lymphoblastic leukemia cells, K562 cells were derived from patient with […] with bcr-abl translocation, A549 line is lung adenocarcinoma, HCT116 is colorectal tumor cell line and its p53 gene knock-down counterpart (HCT116p53−) is a model of human cancers with p53 mutation frequently associated with poor prognosis. The daunorubicin resistant subline of CEM cells (CEM-DNR bulk) and paclitaxel resistant subline K562-tax were selected in our laboratory by the cultivation of maternal cell lines in increasing concentrations of daunorubicine or paclitaxel, respectively (Noskova et al., Neoplasma 49, 2002, 418). The CEM-DNR bulk cells overexpress MRP-1 protein, while K562-tax cells overexpress P-glycoprotein, both proteins belong to family of ABC transporters and are involved in primary and/or acquired multidrug resistance phenomenon (Noskova et al., Neoplasma 49, 2002, 418). The cells were maintained in Nunc/Corning 80 cm^2 plastic tissue culture flasks and cultured in cell culture medium (DMEM/RPMI 1640 with 5 g/l glucose, 2 mM glutamine, 100 U/ml penicillin, 100 μg/ml streptomycin, 10% fetal calf serum, and NaHCO3).
This assay was performed according to Hajduch et al., Anti-Cancer Drugs 10, 1997, 1007. Cell suspensions were prepared and diluted according to the particular cell type and the expected target cell density (2 500-30 000 cells/well based on cell growth characteristics). Cells were added by pipette (80 μl) into 96-well microtiter plates. Inoculates were allowed a pre-incubation period of 24 h at 37° C. and 5% CO2 for stabilization. Four-fold dilutions, in 20-μl aliquots, of the intended test concentration were added to the microtiter plate wells at time zero. All test compound concentrations were examined in duplicate. Incubation of the cells with the test compounds lasted for 72 h at 37° C., in a 5% CO2 atmosphere at 100% humidity. At the end of the incubation period, the cells were assayed using MTT. Aliquots (10 μl) of the MTT stock solution were pipetted into each well and incubated for a further 1-4 h. After this incubation period the formazan produced was dissolved by the addition of 100 μl/well of 10% aq SDS (pH=5.5), followed by a further incubation at 37° C. overnight. The optical density (OD) was measured at 540 nm with a Labsystem iEMS Reader MF. Tumor cell survival (TCS) was calculated using the following equation: TCS=(ODdrug-exposed well/mean ODcontrol wells)×100%. The TCS50 value, the drug concentration lethal to 50% of the tumor cells, was calculated from appropriate dose-response curves.

The target of experiment [1] is T1, human carbonic anhydrase IX (hCA IX) (Homo sapiens, UniProt Q16790).
T1 construct: Construct contained the extracellular CA domain (amino acid residues 139-390) cloned into the pMT/BiP/V5-His vector; His tag (from vector pMT/BiP/V5-His) (C); BiP secretion signal (from vector pMT/BiP/V5-His) (N); made in house; host or cells: Drosophila expression system (Invitrogen), insect cells, secreted into SF 900 II medium
Briefly: Colorimetric carbonic anhydrase inhibition assay (CO2 hydration, phenol red), hCA IX. Type of experiment: biochemical. Particulars: for Selectivity to hCA IX IC50 (hCA II)/IC50 (hCA IX): ratio of IC50 values. The protocol: The compounds were assayed for inhibition activity of two isoforms of human carbonic anhydrase: hCA II and hCA IX. The human carbonic anhydrase II (HCA II) was purchased from Sigma Aldrich (Cat. No. C6165) in the form of lyophilized protein, which was dissolved before use in 10 mmol·l^−1 HEPES pH 7.0 to a concentration of 300 μmol·l^−1 and further diluted as required. Human carbonic anhydrase IX (HCA IX) was prepared by recombinant expression system in insect (Drosophila expression system, Invitrogen). […] This protein was further purified from media by chelating chromatography carrier His-Select Nickel Affinity Gel (Sigma, Cat No. P6611) and gel chromatography (Superdex 200 GL 30/300, GE Healthcare) according to the manufacturer's recommendations.
The principle of the method is based on measuring the rate of acidification of the solution that is observed as the color-shift of the acid-base-indicator (fenol red). The reaction was conducted in a glass tube placed in an ice bath (0° C., all stock solutions and enzymes were kept at the same temperature). […] This was followed by a CO2 saturation (stream flow 50 ml/min.) using a needle (18 G) up to color transition of fenol-red from red to yellow (typically 60 seconds by default). […] End point of reaction was determined by visual comparison with reference tube containing acid-base indicator (0.01% (wt./vol.) Fenol-red) and the pH adjusted to 7.0. […] Molar activity was calculated according to the formula:
[formula] where tB is the time of negative control without enzyme and tS is the time measured with an enzyme sample (and inhibitor), nprot is the number of moles of protein present in the sample. The value of IC50 for the inhibitor concentration corresponds inhibitor contraction required to decrease the specific activity to half of the value of non-inhibited enzyme. Selectivity towards CA IX inhibitor was calculated as the ratio of IC50 values for inhibition of HCA II against the value of IC50 for inhibition CA IX enzyme.

[2] abbreviates: 0° C., HEPES pH 7.0, recombinant extracellular CA domain, read-out: IC50 (hCA IX).
The mark [3] stands for this setting: reference value in legend of FIG. 34, read-out: IC 50 CAIX (figure legend).

As for “1-methylenesulfamide-1,7-dicarba-closo-dodecaborane [CB-19]”, the figures for the IC50 (in the experiment with HCT116p53−/−; in experiment [1] (setting [2])) were 78.3 ± 6.5 µM and 2000 nM, respectively. For the same substance, in experiment [1], the “Selectivity to hCA IX IC50 (hCA II)/IC50 (hCA IX)” value (shortened to “Selectivity to hCA IX IC50”) stood at 4.45.
For “1-methylenesulfamide-3,3′-commo-bis(1,2-dicarba-3-cobalta(III)-closo-dodecabor)ate (1-) [CB-5]” the same measures were 64.7 ± 9.1 µM, 40 nM and 92.5.
With “1-methylenesulfamide-9-phenyl-1,2-dicarba-closo-dodecaborane and 1-methylene-sulfamide-12-phenyl-1,2-dicarba-closo-dodecaborane [CB-8]”, the IC50 worked out at 86.6 ± 7.5 µM in the experiment on HCT116p53−/− and 370 nM in experiment [1] (setting [2]). Moreover, in experiment [1], the “Selectivity to hCA IX IC50” value was found to be 6.59.
In the case of “1-methylensulfamide-1,2-dicarba-closo-dodekaborane [CB-1]”, the IC50 in the experiment on HCT116p53−/− was 62 ± 2.7 µM; in experiment [1] (setting [2]), 370 nM.
For “1-sulfamide-closo-1-carbadodecaborate (1-) [CB-3]” the same measures were not below 100 µM and 3600 nM.
For the substance “7-methylensulfamide-8-phenyl-(7,8-nido-dikarbaundekabor)ate (1-) [CB-6]”, the results for the IC50 (in the experiment with HCT116p53−/−; in experiment [1] (setting [2])) were 24.2 ± 3.2 µM and 1080 nM, respectively. Moreover, the “Selectivity to hCA IX IC50” value in experiment [1] came to 36.2.
In the case of “7-methylensulfamide-(7,8-nido-dicarbaundekaborate) (1-) [CB-2]”, the IC50 in experiment [1] (setting [2]) was 2600 nM.
Take “8-butyloxysulfamide-3,3′-commo-bis(decahydro-1,2-dicarba-3-cobalta(III)-closo-dodekabor)ate (1-) [CB-16]”: the IC50 was determined as 78.4 ± 3.9 µM in the experiment with HCT116p53−/−, 280 nM in experiment [1] (setting [2]) and 280 nM in experiment [1] (setting [3]). In addition, the “Selectivity to hCA IX IC50” value in experiment [1] was determined as 2.43.
For “8-diethyleneoxysulfamide-3,3′-commo-bis(decahydro-1,2-dicarba-3-cobalta(III)-closo-dodekabor)ate (1-) [CB-17]”, the figures for the IC50 (in the experiment with HCT116p53−/−; in experiment [1] (setting [2])) were not below 100 µM and 350 nM, respectively. Besides, in experiment [1], the “Selectivity to hCA IX IC50” value worked out at 34.3.
The matching figures for “8-ethylaminomethylsulfamide-8″-methoxy-3,3′-commo-bis(decahydro-1,2-dicarba-3-cobalta(III)-closo-dodecabor)ate (1-) [CB-15]”: 17.6 ± 0.9 µM, 2000 nM and 7.00.
Regarding “8-methylensulfamide-8″-methoxy-3,3′-commo-bis(1,2-dicarba-3-cobalta(III)-closo-dodecabor)ate (1-) [CB-4]”, the IC50 in the experiment on HCT116p53−/− is 71.9 ± 3.4 µM; in experiment [1] (setting [2]), 50 nM; in experiment [1] (setting [3]) it was 50 nM. For the same substance, the “Selectivity to hCA IX IC50” value in experiment [1] was found to be 100.
As to “8-propylenesulfamide-7-phenyl-(7,8-nido-dicarbaundecabor)ate (1-) [CB-13]”, the IC50 stood at 61.3 ± 4.9 µM with HCT116p53−/− and 80 nM in experiment [1] (setting [2]). In experiment [1], the “Selectivity to hCA IX IC50” value is reported as 48.8.
The matching figures for “9-sulfamide-9′-amine-2,2′-commo-bis(1,7,9-trikarba-2-ferra(II)-kloso-dodekabor)ane [CB-12]”: not below 100 µM, 1490 nM and 10.0.
For “10-sulfamide-9′-amine-2,2′-commo-(1,7,10-tricarba-1′,7′,9′-tricarba-2-ferra (II)-closo-dodekabor)ane [CB-10]”, the IC50 in experiment [1] (setting [2]) worked out at 9680 nM. In addition, the “Selectivity to hCA IX IC50” value in experiment [1] came to 7.0.
As for “Di(methylenesulfamide)-1,7-dicarba-closo-dodecaborane [CB-20]”, the IC50 with HCT116p53−/− was not below 100 µM; in experiment [1] (setting [2]) it was 490 nM. Moreover, in experiment [1], the “Selectivity to hCA IX IC50” value was 3.27.
